Laboratory results from the kinase profiling compilation of Christmann-Franck et al. (2016).

These molecules were tested against ACVRL1 (human) (UniProt P37023) (assay: radiometric filter-binding kinase assay, Kinase HotSpot). Conditions: compound 0.5 µM; ATP 10 µM.
`O=C(Nc1ccc(Cl)cc1)c1ccccc1NCc1ccncc1` gave a residual activity of 98.9%.
In the case of `O=C1Cc2c([nH]c3ccc([N+](=O)[O-])cc23)-c2ccccc2N1`, the residual activity is reported as 76.2%.
`Cc1ccc(NC(=O)c2ccc(CN3CCN(C)CC3)cc2)cc1Nc1nc(-c2cccnc2)cs1` gave a residual activity of 103%.
Work on `O=C1Nc2ccccc2/C1=C\c1c(Cl)[nH]c2ccccc12` yielded a residual activity of 99.8%.

These molecules were tested against ADRBK2 (human) (UniProt P35626) in the same assay as above. Conditions: compound 0.5 µM; ATP 10 µM.
ADRBK2 (human), sequence (P35626 whole entry, looked up): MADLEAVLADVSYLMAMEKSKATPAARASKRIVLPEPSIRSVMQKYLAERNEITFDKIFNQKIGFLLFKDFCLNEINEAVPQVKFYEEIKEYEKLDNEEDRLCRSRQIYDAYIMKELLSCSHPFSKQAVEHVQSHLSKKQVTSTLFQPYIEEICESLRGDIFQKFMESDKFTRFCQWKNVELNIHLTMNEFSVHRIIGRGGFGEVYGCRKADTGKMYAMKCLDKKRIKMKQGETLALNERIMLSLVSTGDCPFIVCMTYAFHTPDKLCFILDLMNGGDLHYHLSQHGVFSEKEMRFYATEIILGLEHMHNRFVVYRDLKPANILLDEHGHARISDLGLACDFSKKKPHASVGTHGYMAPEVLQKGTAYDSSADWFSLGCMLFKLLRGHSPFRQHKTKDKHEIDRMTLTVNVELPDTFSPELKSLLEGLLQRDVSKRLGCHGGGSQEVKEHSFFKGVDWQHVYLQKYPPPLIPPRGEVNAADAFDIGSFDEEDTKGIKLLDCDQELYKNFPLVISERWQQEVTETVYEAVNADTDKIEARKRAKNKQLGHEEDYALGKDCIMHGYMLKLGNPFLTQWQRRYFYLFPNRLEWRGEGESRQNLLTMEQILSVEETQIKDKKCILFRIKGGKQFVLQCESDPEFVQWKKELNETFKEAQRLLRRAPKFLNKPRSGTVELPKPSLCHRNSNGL
`O=C(Nc1ccc(Cl)cc1)c1ccccc1NCc1ccncc1` was tested, and the residual activity was 96.1%.
`O=C1Cc2c([nH]c3ccc([N+](=O)[O-])cc23)-c2ccccc2N1` gave a residual activity of 88.9%.
With `Cc1ccc(NC(=O)c2ccc(CN3CCN(C)CC3)cc2)cc1Nc1nc(-c2cccnc2)cs1` the residual activity was 100%.
Molecule `O=C1Nc2ccccc2/C1=C\c1c(Cl)[nH]c2ccccc12` has a residual activity of 90.1%.

Each molecule was assayed against BRSK2 (human) (UniProt Q8IWQ3) in the same assay as above. Conditions: compound 0.5 µM; ATP 10 µM.
`O=C(Nc1ccc(Cl)cc1)c1ccccc1NCc1ccncc1` showed a residual activity of 102%.
With `O=C1Cc2c([nH]c3ccc([N+](=O)[O-])cc23)-c2ccccc2N1` the residual activity was 34.5%.
With `Cc1ccc(NC(=O)c2ccc(CN3CCN(C)CC3)cc2)cc1Nc1nc(-c2cccnc2)cs1` the residual activity was 99.9%.
Work on `O=C1Nc2ccccc2/C1=C\c1c(Cl)[nH]c2ccccc12` yielded a residual activity of 96.2%.

The molecules below were run against CAMKK1 (human) (UniProt Q8N5S9) in the same assay as above. Conditions: compound 0.5 µM; ATP 10 µM.
With `O=C(Nc1ccc(Cl)cc1)c1ccccc1NCc1ccncc1` the residual activity was 98.5%.
With `O=C1Cc2c([nH]c3ccc([N+](=O)[O-])cc23)-c2ccccc2N1` the residual activity was 91.7%.
For `Cc1ccc(NC(=O)c2ccc(CN3CCN(C)CC3)cc2)cc1Nc1nc(-c2cccnc2)cs1`, the residual activity was 97.6%.
In the case of `O=C1Nc2ccccc2/C1=C\c1c(Cl)[nH]c2ccccc12`, the residual activity is reported as 116%.

Each molecule was assayed against CDK1 CCNA2 (human) (UniProt P06493+P20248) in the same assay as above. Conditions: compound 0.5 µM; ATP 10 µM.
CDK1 CCNA2 (human), sequence (P06493 whole entry, looked up): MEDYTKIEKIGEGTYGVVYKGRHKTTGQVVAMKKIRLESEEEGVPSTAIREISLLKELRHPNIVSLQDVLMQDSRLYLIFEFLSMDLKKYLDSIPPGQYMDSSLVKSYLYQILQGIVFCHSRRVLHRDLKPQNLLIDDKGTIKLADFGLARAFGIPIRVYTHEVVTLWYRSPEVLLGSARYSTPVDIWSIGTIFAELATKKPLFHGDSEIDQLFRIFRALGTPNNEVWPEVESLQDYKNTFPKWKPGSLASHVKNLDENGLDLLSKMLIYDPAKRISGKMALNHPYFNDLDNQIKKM
CDK1 CCNA2 (human), sequence (P20248 whole entry, looked up): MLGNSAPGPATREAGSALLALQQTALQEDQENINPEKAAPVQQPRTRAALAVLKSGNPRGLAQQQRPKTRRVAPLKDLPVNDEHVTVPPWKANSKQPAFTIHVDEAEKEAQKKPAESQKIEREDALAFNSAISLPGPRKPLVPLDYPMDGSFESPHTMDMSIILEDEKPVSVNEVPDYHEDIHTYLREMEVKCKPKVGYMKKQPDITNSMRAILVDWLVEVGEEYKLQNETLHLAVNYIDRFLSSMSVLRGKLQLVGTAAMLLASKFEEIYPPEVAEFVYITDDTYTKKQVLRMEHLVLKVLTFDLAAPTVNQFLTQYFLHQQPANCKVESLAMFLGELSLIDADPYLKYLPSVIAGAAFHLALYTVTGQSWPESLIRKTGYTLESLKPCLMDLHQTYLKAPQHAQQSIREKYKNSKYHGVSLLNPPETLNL
With `O=C(Nc1ccc(Cl)cc1)c1ccccc1NCc1ccncc1` the residual activity was 91.8%.
With `O=C1Cc2c([nH]c3ccc([N+](=O)[O-])cc23)-c2ccccc2N1` the residual activity was 54.5%.
`Cc1ccc(NC(=O)c2ccc(CN3CCN(C)CC3)cc2)cc1Nc1nc(-c2cccnc2)cs1` gave a residual activity of 98%.
`O=C1Nc2ccccc2/C1=C\c1c(Cl)[nH]c2ccccc12` showed a residual activity of 103%.

The molecules below were run against CDK1 CCNB1 (human) (UniProt P06493+P14635) in the same assay as above. Conditions: compound 0.5 µM; ATP 10 µM.
CDK1 CCNB1 (human), sequence (P06493 whole entry, looked up): as the sequence (P06493 whole entry, looked up) above
CDK1 CCNB1 (human), sequence (P14635 whole entry, looked up): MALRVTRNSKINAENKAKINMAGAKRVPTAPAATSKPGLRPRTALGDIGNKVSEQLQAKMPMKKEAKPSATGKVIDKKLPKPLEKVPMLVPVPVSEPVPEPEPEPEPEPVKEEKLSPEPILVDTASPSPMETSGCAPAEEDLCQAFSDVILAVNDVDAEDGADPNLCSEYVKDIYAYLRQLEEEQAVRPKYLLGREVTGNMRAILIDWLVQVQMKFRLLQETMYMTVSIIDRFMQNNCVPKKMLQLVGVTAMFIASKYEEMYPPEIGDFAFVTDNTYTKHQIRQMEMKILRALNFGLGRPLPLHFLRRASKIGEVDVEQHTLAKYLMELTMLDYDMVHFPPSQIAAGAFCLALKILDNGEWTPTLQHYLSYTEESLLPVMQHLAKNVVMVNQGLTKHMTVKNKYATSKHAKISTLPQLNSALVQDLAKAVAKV
`O=C(Nc1ccc(Cl)cc1)c1ccccc1NCc1ccncc1` was tested, and the residual activity was 96.3%.
`O=C1Cc2c([nH]c3ccc([N+](=O)[O-])cc23)-c2ccccc2N1` was tested, and the residual activity was 23.2%.
For `Cc1ccc(NC(=O)c2ccc(CN3CCN(C)CC3)cc2)cc1Nc1nc(-c2cccnc2)cs1`, the residual activity was 97.6%.
`O=C1Nc2ccccc2/C1=C\c1c(Cl)[nH]c2ccccc12` gave a residual activity of 94.3%.

What follows are molecules tested against CDK6 CCND1 (human) (UniProt Q00534+P24385) in the same assay as above. Conditions: compound 0.5 µM; ATP 10 µM.
Work on `O=C(Nc1ccc(Cl)cc1)c1ccccc1NCc1ccncc1` yielded a residual activity of 93.4%.
In the case of `O=C1Cc2c([nH]c3ccc([N+](=O)[O-])cc23)-c2ccccc2N1`, the residual activity is reported as 16.8%.
For `Cc1ccc(NC(=O)c2ccc(CN3CCN(C)CC3)cc2)cc1Nc1nc(-c2cccnc2)cs1`, the residual activity was 98%.
In the case of `O=C1Nc2ccccc2/C1=C\c1c(Cl)[nH]c2ccccc12`, the residual activity is reported as 105%.

Each molecule was assayed against CDK9 CCNK (human) (UniProt O75909+P50750) in the same assay as above. Conditions: compound 0.5 µM; ATP 10 µM.
`O=C(Nc1ccc(Cl)cc1)c1ccccc1NCc1ccncc1` was tested, and the residual activity was 95.5%.
`O=C1Cc2c([nH]c3ccc([N+](=O)[O-])cc23)-c2ccccc2N1` gave a residual activity of 24.2%.
`Cc1ccc(NC(=O)c2ccc(CN3CCN(C)CC3)cc2)cc1Nc1nc(-c2cccnc2)cs1` was tested, and the residual activity was 109%.
With `O=C1Nc2ccccc2/C1=C\c1c(Cl)[nH]c2ccccc12` the residual activity was 98.3%.

These molecules were tested against CSNK1E (human) (UniProt P49674) in the same assay as above. Conditions: compound 0.5 µM; ATP 10 µM.
Work on `O=C(Nc1ccc(Cl)cc1)c1ccccc1NCc1ccncc1` yielded a residual activity of 92.5%.
With `O=C1Cc2c([nH]c3ccc([N+](=O)[O-])cc23)-c2ccccc2N1` the residual activity was 95.9%.
Work on `Cc1ccc(NC(=O)c2ccc(CN3CCN(C)CC3)cc2)cc1Nc1nc(-c2cccnc2)cs1` yielded a residual activity of 98.8%.
Work on `O=C1Nc2ccccc2/C1=C\c1c(Cl)[nH]c2ccccc12` yielded a residual activity of 87.8%.

Each molecule was assayed against EPHA2 (human) (UniProt P29317) in the same assay as above. Conditions: compound 0.5 µM; ATP 10 µM.
`O=C(Nc1ccc(Cl)cc1)c1ccccc1NCc1ccncc1` showed a residual activity of 101%.
`O=C1Cc2c([nH]c3ccc([N+](=O)[O-])cc23)-c2ccccc2N1` was tested, and the residual activity was 92.7%.
`Cc1ccc(NC(=O)c2ccc(CN3CCN(C)CC3)cc2)cc1Nc1nc(-c2cccnc2)cs1` showed a residual activity of 91.2%.
`O=C1Nc2ccccc2/C1=C\c1c(Cl)[nH]c2ccccc12` gave a residual activity of 97.3%.

What follows are molecules tested against EPHA7 (human) (UniProt Q15375) in the same assay as above. Conditions: compound 0.5 µM; ATP 10 µM.
Work on `O=C(Nc1ccc(Cl)cc1)c1ccccc1NCc1ccncc1` yielded a residual activity of 95%.
`O=C1Cc2c([nH]c3ccc([N+](=O)[O-])cc23)-c2ccccc2N1` was tested, and the residual activity was 95%.
Molecule `Cc1ccc(NC(=O)c2ccc(CN3CCN(C)CC3)cc2)cc1Nc1nc(-c2cccnc2)cs1` has a residual activity of 99.7%.
With `O=C1Nc2ccccc2/C1=C\c1c(Cl)[nH]c2ccccc12` the residual activity was 95.3%.

The molecules below were run against FER (human) (UniProt P16591) in the same assay as above. Conditions: compound 0.5 µM; ATP 10 µM.
FER (human), sequence (P16591 whole entry, looked up): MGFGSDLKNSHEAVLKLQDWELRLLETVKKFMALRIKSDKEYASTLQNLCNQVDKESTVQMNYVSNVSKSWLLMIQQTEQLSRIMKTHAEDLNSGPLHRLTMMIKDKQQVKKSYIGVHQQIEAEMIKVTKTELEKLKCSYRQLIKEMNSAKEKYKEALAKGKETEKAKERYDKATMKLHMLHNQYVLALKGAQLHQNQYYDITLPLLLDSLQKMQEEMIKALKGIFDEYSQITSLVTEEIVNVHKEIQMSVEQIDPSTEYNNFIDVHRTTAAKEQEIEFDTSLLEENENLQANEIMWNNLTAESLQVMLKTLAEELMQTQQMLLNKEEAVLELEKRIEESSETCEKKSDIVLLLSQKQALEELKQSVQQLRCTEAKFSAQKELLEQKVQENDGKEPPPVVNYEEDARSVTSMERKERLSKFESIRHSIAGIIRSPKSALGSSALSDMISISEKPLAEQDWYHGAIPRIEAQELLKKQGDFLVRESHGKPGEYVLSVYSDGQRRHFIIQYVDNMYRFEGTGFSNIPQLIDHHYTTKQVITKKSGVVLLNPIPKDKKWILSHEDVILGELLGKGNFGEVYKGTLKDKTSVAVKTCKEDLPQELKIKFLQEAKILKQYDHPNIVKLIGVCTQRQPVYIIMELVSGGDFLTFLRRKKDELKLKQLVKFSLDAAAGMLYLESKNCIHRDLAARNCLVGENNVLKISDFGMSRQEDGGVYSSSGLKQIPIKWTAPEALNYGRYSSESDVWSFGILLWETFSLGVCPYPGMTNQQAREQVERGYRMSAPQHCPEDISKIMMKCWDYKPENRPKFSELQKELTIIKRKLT
`O=C(Nc1ccc(Cl)cc1)c1ccccc1NCc1ccncc1` was tested, and the residual activity was 80.4%.
Work on `O=C1Cc2c([nH]c3ccc([N+](=O)[O-])cc23)-c2ccccc2N1` yielded a residual activity of 75.1%.
`Cc1ccc(NC(=O)c2ccc(CN3CCN(C)CC3)cc2)cc1Nc1nc(-c2cccnc2)cs1` gave a residual activity of 97.6%.
For `O=C1Nc2ccccc2/C1=C\c1c(Cl)[nH]c2ccccc12`, the residual activity was 91.8%.

The molecules below were run against FLT3 (human) (UniProt P36888) in the same assay as above. Conditions: compound 0.5 µM; ATP 10 µM.
`O=C(Nc1ccc(Cl)cc1)c1ccccc1NCc1ccncc1` was tested, and the residual activity was 91.5%.
Work on `O=C1Cc2c([nH]c3ccc([N+](=O)[O-])cc23)-c2ccccc2N1` yielded a residual activity of 19.7%.
In the case of `Cc1ccc(NC(=O)c2ccc(CN3CCN(C)CC3)cc2)cc1Nc1nc(-c2cccnc2)cs1`, the residual activity is reported as 84.4%.
Molecule `O=C1Nc2ccccc2/C1=C\c1c(Cl)[nH]c2ccccc12` has a residual activity of 80.5%.

What follows are molecules tested against GRK7 (human) (UniProt Q8WTQ7) in the same assay as above. Conditions: compound 0.5 µM; ATP 10 µM.
GRK7 (human), sequence (Q8WTQ7 whole entry, looked up): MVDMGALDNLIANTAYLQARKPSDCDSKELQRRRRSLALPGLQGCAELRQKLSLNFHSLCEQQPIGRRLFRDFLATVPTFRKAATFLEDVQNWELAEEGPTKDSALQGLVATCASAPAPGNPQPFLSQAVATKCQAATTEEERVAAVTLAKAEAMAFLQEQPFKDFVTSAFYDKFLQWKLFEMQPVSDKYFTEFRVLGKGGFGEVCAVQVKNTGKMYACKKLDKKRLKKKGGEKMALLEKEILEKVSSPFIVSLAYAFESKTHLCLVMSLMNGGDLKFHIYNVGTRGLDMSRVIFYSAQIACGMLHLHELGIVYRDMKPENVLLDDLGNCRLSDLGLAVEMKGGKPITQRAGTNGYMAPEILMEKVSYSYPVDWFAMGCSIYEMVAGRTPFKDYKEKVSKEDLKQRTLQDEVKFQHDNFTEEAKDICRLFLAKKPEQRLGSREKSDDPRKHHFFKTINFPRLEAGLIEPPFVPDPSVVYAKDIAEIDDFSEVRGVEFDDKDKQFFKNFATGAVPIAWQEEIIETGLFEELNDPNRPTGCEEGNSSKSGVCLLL
In the case of `O=C(Nc1ccc(Cl)cc1)c1ccccc1NCc1ccncc1`, the residual activity is reported as 96.2%.
`O=C1Cc2c([nH]c3ccc([N+](=O)[O-])cc23)-c2ccccc2N1` was tested, and the residual activity was 99%.
For `Cc1ccc(NC(=O)c2ccc(CN3CCN(C)CC3)cc2)cc1Nc1nc(-c2cccnc2)cs1`, the residual activity was 104%.
`O=C1Nc2ccccc2/C1=C\c1c(Cl)[nH]c2ccccc12` gave a residual activity of 106%.

These molecules were tested against GSK3B (human) (UniProt P49841) in the same assay as above. Conditions: compound 0.5 µM; ATP 10 µM.
For `O=C(Nc1ccc(Cl)cc1)c1ccccc1NCc1ccncc1`, the residual activity was 89.3%.
In the case of `O=C1Cc2c([nH]c3ccc([N+](=O)[O-])cc23)-c2ccccc2N1`, the residual activity is reported as 2.68%.
With `O=C1Nc2ccccc2/C1=C\c1c(Cl)[nH]c2ccccc12` the residual activity was 105%.

The molecules below were run against HCK (human) (UniProt P08631) in the same assay as above. Conditions: compound 0.5 µM; ATP 10 µM.
HCK (human), sequence (P08631 whole entry, looked up): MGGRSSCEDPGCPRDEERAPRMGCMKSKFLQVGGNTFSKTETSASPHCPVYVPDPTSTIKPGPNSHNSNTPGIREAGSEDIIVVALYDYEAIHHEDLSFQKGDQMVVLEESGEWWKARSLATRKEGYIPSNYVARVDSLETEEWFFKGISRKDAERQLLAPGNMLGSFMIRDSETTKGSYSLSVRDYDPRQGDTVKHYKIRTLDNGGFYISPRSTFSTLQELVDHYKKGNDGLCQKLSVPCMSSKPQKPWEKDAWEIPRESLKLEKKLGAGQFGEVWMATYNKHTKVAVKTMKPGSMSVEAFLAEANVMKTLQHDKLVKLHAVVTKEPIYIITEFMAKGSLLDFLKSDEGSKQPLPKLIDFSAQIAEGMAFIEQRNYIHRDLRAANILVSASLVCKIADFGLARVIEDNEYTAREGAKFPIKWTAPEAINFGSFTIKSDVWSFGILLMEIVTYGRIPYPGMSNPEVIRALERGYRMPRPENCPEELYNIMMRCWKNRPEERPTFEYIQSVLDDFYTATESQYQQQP
With `O=C(Nc1ccc(Cl)cc1)c1ccccc1NCc1ccncc1` the residual activity was 101%.
For `O=C1Cc2c([nH]c3ccc([N+](=O)[O-])cc23)-c2ccccc2N1`, the residual activity was 71.8%.
`Cc1ccc(NC(=O)c2ccc(CN3CCN(C)CC3)cc2)cc1Nc1nc(-c2cccnc2)cs1` gave a residual activity of 55.7%.
With `O=C1Nc2ccccc2/C1=C\c1c(Cl)[nH]c2ccccc12` the residual activity was 98.5%.

The molecules below were run against IRAK1 (human) (UniProt P51617) in the same assay as above. Conditions: compound 0.5 µM; ATP 10 µM.
Molecule `O=C(Nc1ccc(Cl)cc1)c1ccccc1NCc1ccncc1` has a residual activity of 117%.
Molecule `O=C1Cc2c([nH]c3ccc([N+](=O)[O-])cc23)-c2ccccc2N1` has a residual activity of 93.1%.
`Cc1ccc(NC(=O)c2ccc(CN3CCN(C)CC3)cc2)cc1Nc1nc(-c2cccnc2)cs1` gave a residual activity of 104%.
`O=C1Nc2ccccc2/C1=C\c1c(Cl)[nH]c2ccccc12` was tested, and the residual activity was 89.5%.

What follows are molecules tested against LIMK1 (human) (UniProt P53667) in the same assay as above. Conditions: compound 0.5 µM; ATP 10 µM.
`O=C(Nc1ccc(Cl)cc1)c1ccccc1NCc1ccncc1` showed a residual activity of 83.4%.
Molecule `O=C1Cc2c([nH]c3ccc([N+](=O)[O-])cc23)-c2ccccc2N1` has a residual activity of 94.3%.
Molecule `Cc1ccc(NC(=O)c2ccc(CN3CCN(C)CC3)cc2)cc1Nc1nc(-c2cccnc2)cs1` has a residual activity of 98.1%.
Molecule `O=C1Nc2ccccc2/C1=C\c1c(Cl)[nH]c2ccccc12` has a residual activity of 109%.

The molecules below were run against LTK (human) (UniProt P29376) in the same assay as above. Conditions: compound 0.5 µM; ATP 10 µM.
Work on `O=C(Nc1ccc(Cl)cc1)c1ccccc1NCc1ccncc1` yielded a residual activity of 104%.
Molecule `O=C1Cc2c([nH]c3ccc([N+](=O)[O-])cc23)-c2ccccc2N1` has a residual activity of 93.9%.
Work on `Cc1ccc(NC(=O)c2ccc(CN3CCN(C)CC3)cc2)cc1Nc1nc(-c2cccnc2)cs1` yielded a residual activity of 102%.
In the case of `O=C1Nc2ccccc2/C1=C\c1c(Cl)[nH]c2ccccc12`, the residual activity is reported as 95.1%.

What follows are molecules tested against MAP3K9 (human) (UniProt P80192) in the same assay as above. Conditions: compound 0.5 µM; ATP 10 µM.
With `O=C(Nc1ccc(Cl)cc1)c1ccccc1NCc1ccncc1` the residual activity was 89%.
`O=C1Cc2c([nH]c3ccc([N+](=O)[O-])cc23)-c2ccccc2N1` gave a residual activity of 10.5%.
For `Cc1ccc(NC(=O)c2ccc(CN3CCN(C)CC3)cc2)cc1Nc1nc(-c2cccnc2)cs1`, the residual activity was 104%.
`O=C1Nc2ccccc2/C1=C\c1c(Cl)[nH]c2ccccc12` showed a residual activity of 97.9%.

These molecules were tested against MLTK (human) (UniProt Q9NYL2) in the same assay as above. Conditions: compound 0.5 µM; ATP 10 µM.
MLTK (human), sequence (Q9NYL2 whole entry, looked up): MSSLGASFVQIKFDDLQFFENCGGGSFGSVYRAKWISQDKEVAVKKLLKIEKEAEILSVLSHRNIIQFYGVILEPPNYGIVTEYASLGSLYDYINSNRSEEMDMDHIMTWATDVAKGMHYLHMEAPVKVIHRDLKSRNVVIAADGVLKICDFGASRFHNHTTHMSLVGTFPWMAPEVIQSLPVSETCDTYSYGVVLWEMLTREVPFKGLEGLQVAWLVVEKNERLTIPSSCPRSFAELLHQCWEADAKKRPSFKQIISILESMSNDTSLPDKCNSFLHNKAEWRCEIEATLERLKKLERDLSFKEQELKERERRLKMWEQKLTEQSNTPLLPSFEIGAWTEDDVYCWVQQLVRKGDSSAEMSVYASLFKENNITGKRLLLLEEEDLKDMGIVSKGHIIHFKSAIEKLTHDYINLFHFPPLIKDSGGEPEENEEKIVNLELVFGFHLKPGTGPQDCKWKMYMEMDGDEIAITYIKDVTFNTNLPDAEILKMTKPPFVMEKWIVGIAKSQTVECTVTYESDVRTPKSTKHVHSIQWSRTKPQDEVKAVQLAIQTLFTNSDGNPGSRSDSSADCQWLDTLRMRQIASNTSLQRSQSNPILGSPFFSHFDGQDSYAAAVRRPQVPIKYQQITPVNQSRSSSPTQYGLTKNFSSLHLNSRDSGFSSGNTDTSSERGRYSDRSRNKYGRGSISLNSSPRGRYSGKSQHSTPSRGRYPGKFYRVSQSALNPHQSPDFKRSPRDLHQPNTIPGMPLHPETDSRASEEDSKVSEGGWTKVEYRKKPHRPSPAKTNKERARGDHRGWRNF
Molecule `O=C(Nc1ccc(Cl)cc1)c1ccccc1NCc1ccncc1` has a residual activity of 86%.
`Cc1ccc(NC(=O)c2ccc(CN3CCN(C)CC3)cc2)cc1Nc1nc(-c2cccnc2)cs1` showed a residual activity of 86.8%.
`O=C1Nc2ccccc2/C1=C\c1c(Cl)[nH]c2ccccc12` showed a residual activity of 99.2%.
